# According to article PMC9545474, “Anticancer Water‐Soluble Organoruthenium Complexes: Synthesis and Preclinical Evaluation” (Chembiochem, 2022):
# Like-named read-outs stand apart in the source and are kept apart here.
# Legend:
# [1] = tested on: A2780 ovarian cancer cells; design: method as in PMID 32237195; settings: read-out: IC50 values ±SD, A2780; cited from earlier work
# [2] = tested on: A2780cisR cisplatin-resistant ovarian cancer cells; design: method as in PMID 32237195; settings: read-out: IC50 values ±SD, A2780cisR; cited from earlier work
# [3] = tested on: H460 non-small-cell lung cancer cells; design: method as in PMID 32237195; settings: read-out: IC50 values ±SD, H460; cited from earlier work
# [4] = tested on: ovarian, colon, and lung cancer cell lines; design: method as in PMID 32237195; settings: some ovarian; cited from earlier work
# [5] = tested on: non-immortalised lymphocytes; design: method as in PMID 33119178; settings: cited from earlier work
# MCF-7 cell line = tested on: MCF-7 cell line; design: method as in PMID 27357845; settings: read-out: EC50 against MCF-7 cell line; cited from earlier work
# [6] = tested on: A2780 ovarian cancer cells; assay: 24-hour MTT chemosensitivity assay with 72-hour recovery, A2780; format: cell-based, human; settings: for IC50: 24 h exposure, 72 h recovery, MTT, read-out: IC50 values ±SD, A2780
# Procedure: (§1) Chemosensitivity studies were undertaken using a 24‐hour MTT assay, with a 72‐hour recovery period. The IC50 values were determined against ovarian A2780 (cisplatin‐sensitive) and A2780cisR (cisplatin‐resistant) cancer cell lines, non‐small‐cell lung H460 cancer cell line, and normal prostate PNT2 cell line, exposed to each of compounds 4–8, cisplatin or the phosphine ligands (Table 1 and S4, Figures S29–S31). […] This is unusual but can be related to solubility issues not visible for the naked eye and thus hindering its activity in cells. […] When tested on their own, the phosphine ligands are not active below 100 μM for all four cell lines. […] This therefore prevents comparison with the well‐known RAPTA family, and more especially with RAPTA−C which bears a PTA ligand and a p‐cym ligand, making this complex relatively similar in terms of geometry with complex 4.[21] […] This confirms the interest of the sulfur coordinating atom in terms of cytotoxicity for organoruthenium complexes.[23]
# (§2) Chemosensitivity assay: In vitro chemosensitivity tests were performed against A2780, A2780cisR, PNT2 and H460 cells. Cells were routinely maintained as monolayer cultures in RPMI 1640 medium supplemented with 10 % foetal calf serum, penicillin (100 I.U./mL) and streptomycin (100 μg/mL), sodium pyruvate (1 mM) and L‐glutamine (2 mM). For chemosensitivity studies, cells were seeded in 96‐well plates at a concentration of 7.5×10^3 cells per well and the plates were incubated for 24 h at 37 °C and a 5 % CO2 humidified atmosphere prior to drug exposure.
# (§3) Complexes were dissolved in either DMSO (complexes 4, 5, and 8) or PBS (complexes 6 and 7) to provide stock solutions which were further diluted with media to provide a range of final concentrations. Drug‐media solutions were added to cells (the final concentration of DMSO was less than 1 % (v/v) in all cases) and incubated for 24 h at 37 °C and a 5 % CO2 humidified atmosphere. The drug‐media solution was removed from the wells and the cells were washed with PBS (100 μL, twice) and 200 μL of complete fresh media were added to each well. The plates were further incubated for 72 h at 37 °C and a 5 % CO2 humidified atmosphere to allow for a period of recovery. 3‐(4,5‐dimethylthiazol‐2‐yl)‐2,5‐diphenyltetrazolium bromide (MTT) (40 μL, 2.5 mg/mL) was added to each well and plates were incubated for 2 h. All solutions were then removed and 100 μL of DMSO was added to each well in order to dissolve the purple formazan crystals. A Thermo Scientific Multiskan EX microplate photometer was used to measure the absorbance in each well at 570 nm. Cell survival was determined as the absorbance of treated cells divided by the absorbance of controls and expressed as a percentage. The IC50 values were determined from plots of % survival against drug concentration. Each experiment was repeated in triplicates of triplicates and a mean value was obtained and stated as IC50 (μM) ± SD. Untreated cells were used as a negative control, and cells treated with cisplatin were used as a positive control.
# [7] = tested on: A2780cisR cisplatin-resistant ovarian cancer cells; assay: 24-hour MTT chemosensitivity assay with 72-hour recovery, A2780cisR; format: cell-based, human; settings: for IC50: 24 h exposure, 72 h recovery, MTT, read-out: IC50 values ±SD, A2780cisR
# Procedure: as §1, §2, §3
# [8] = tested on: H460 non-small-cell lung cancer cells; assay: 24-hour MTT chemosensitivity assay with 72-hour recovery, H460; format: cell-based; settings: for IC50: 24 h exposure, 72 h recovery, MTT, read-out: IC50 values ±SD, H460
# Procedure: as §1, §2, §3
# [9] = tested on: PNT2 non-cancerous human prostate cells; assay: 24-hour MTT chemosensitivity assay with 72-hour recovery, PNT2; format: cell-based; settings: 24 h exposure, 72 h recovery, MTT; read-out: IC50 values ±SD, PNT2
# Procedure: as §1, §2, §3
# A2780 cells = assay: JC-10 mitochondrial membrane potential assay by flow cytometry; format: cell-based, human; settings: A2780, 24 h, complexes at IC50, cisplatin 6.5 µM
# Text: A membrane potential sensitive fluorescent probe JC‐10 was used to determine whether the apoptosis induced by complexes 6 and 8 is accompanied by changes in the mitochondrial membrane potential (ΔΨm) of A2780 cells. JC‐10 aggregates inside mitochondria and emits orange fluorescence. Following membrane […], JC‐10 is disaggregated and this in turn reduces the orange fluorescence.
# Figure 8 Effect of complexes 6 and 8 on the mitochondrial membrane potential. […] The percentages of cells with depolarised mitochondrial membrane potential were assessed by flow cytometry after staining with JC‐10. The data are expressed as the means±SD of the three individual experiments.
# Mitochondrial membrane potential assay: Analysis of the changes of mitochondrial potential in A2780 cells after exposure to complexes 6 and 8 was carried out using the JC‐10 mitochondrial membrane potential assay kit (abcam®) according to the manufacturer's instructions. Briefly, 1.0×10^6 cells per well were seeded in a 6‐well plate and incubated for 24 at 37 °C and a 5 % CO2 humidified atmosphere. […] Supernatants were removed by suction, and each well was washed with PBS before detaching the cells using trypsin. Staining of the samples was done in tubes protected from light, incubating for 30 min in the dark at room temperature. Samples were immediately analysed on a BD Accuri C6 Plus System Flow Cytometer, reading the reduction of fluorescence in the FL2 channel.
# [10] = Precipitation in drug-medium solutions; format: physicochemical
compound,measurement,setting,value
"Cc1ccc(C(C)C)cc1.N#CC1=C(C#N)[S][Ru][S]1 [Complex 3, [(η^6‐p‐cymene)Ru(Mnt)]]",IC50,[1],0.5 ± 0.04 µM
same,IC50,[2],0.32 ± 0.15 µM
same,IC50,[3],0.8 ± 0.1 µM
same,Potency relative to cisplatin,[4],5 to 60 ×
same,Toxicity against non-immortalised lymphocytes from healthy individuals,[5],absence of toxicity
Cc1ccc(C(C)C)cc1.[Cl][Ru-]1[O][n+]2ccccc2[S]1 [[(η^6‐p‐cymene)Ru(pyrithionato)Cl]],EC50,MCF-7 cell line,3.81 ± 0.06 µM
"N.N.[Cl][Pt][Cl] [Cisplatin, reference compound]",IC50,[6],6.5 ± 0.4 µM
same,"Selectivity index (SI), A2780",[6]; mean IC50 PNT2 / mean IC50 A2780,1.85
same,IC50,[7],18 ± 0.6 µM
same,"Selectivity factor (cross-resistance, resistance factor RF)",[7]; IC50 A2780cisR / IC50 A2780,2.8
same,"Selectivity index (SI), A2780cisR",[7]; mean IC50 PNT2 / mean IC50 A2780cisR,0.67
same,IC50,[8],4.5 ± 0.2 µM
same,"Selectivity index (SI), H460",[8]; mean IC50 PNT2 / mean IC50 H460,2.67
same,IC50,[9],12 ± 0.7 µM
same,% cell population with high orange fluorescence,A2780 cells; Experiment 1,88.9%
same,% cell population with low orange fluorescence,A2780 cells; Experiment 1,11.1%
same,% cell population with high orange fluorescence,A2780 cells; Experiment 2,87%
same,% cell population with low orange fluorescence,A2780 cells; Experiment 2,13.0%
same,% cell population with high orange fluorescence,A2780 cells; Experiment 3,82.1%
same,% cell population with low orange fluorescence,A2780 cells; Experiment 3,17.9%
same,% cell population with high orange fluorescence,"A2780 cells; Summary, mean values ± SD",86 ± 3.5%
"Cc1ccc(C(C)C)cc1.N#CC1=C(C#N)[S][Ru-]([P+]23CN4CN(CN(C4)C2)C3)[S]1 [Complex 4, (η^6‐p‐cymene)(PTA)Ru(Mnt)]",IC50,[6],≥ 50 µM
same,IC50,[7],≥ 50 µM
same,IC50,[8],≥ 50 µM
same,IC50,[9],≥ 50 µM
same,Concentration above which the complex precipitates,[10],higher than 50 μM
